The structures appear in SMILES notation.

What all share (type): in vivo, human
In assay [1] the test system is patients with clinical statin-induced myalgias. Briefly: Placebo-controlled pilot study of ribose on muscle pain in patients with statin-induced myalgias. The conditions noted are these: for Severity of symptoms, Mean (sd): scale 1=mild to 5=severe. An excerpt: Thirty patients aged 20 to 80 years of age presently taking statins and showing clinical statin-induced myalgias were randomized in a six-week placebo-controlled study of the effect of ribose on muscle pain. Fifteen patients were given five grams of ribose twice a day to determine the improvement in clinical symptoms, using an objective patient questionnaire and physician interview. The primary symptom reported was muscle pain, but other symptoms commonly reported included fatigue, poor sleep, a decrease in mental clarity and a reduced sense of well-being. Fifteen patients presently taking statins were given five grams of glucose twice a day as a control. All patients were given a complete history and physical exam. The patient's assessment of muscle pain, soreness or cramping was graded on a scale of one to five, five being the most severe.
Exclusions: Statin-induced myopathy with elevated CPJK over twice normal • Statin-induced hepatopathy with elevated LFTs over twice normal Pregnancy • Insulin-dependant diabetes • Diseases known to be associated with myalgias, such as fibromyalgia, PMR, CTD, genetic or acquired myopathies • New drugs or supplements during the study period
Inclusions: • Patients on any FDA-approved statin at recommended doses. • Constant use of statin dose and any other drugs for at least four weeks prior to study entry
Ribose or glucose were given as a pill or powder and compliance was monitored by pill count or powder measurement on each visit, weekly during the four week study period. A questionnaire was developed to validate the study results.
The severity of symptoms were compared at each follow-up visit. Subjects were asked to rate the severity of symptoms on a scale from 1 to 5; 1=mild and 5=severe.

For assay [2], the system named is patients with chronic fatigue syndrome or fibromyalgia syndrome. Briefly: Pre- and post-ribose Visual Analog Scale assessment in chronic fatigue syndrome or fibromyalgia syndrome patients. From the text:
There is a cluster of diseases of unknown etiology that share some common symptoms. Included in this cluster are chronic fatigue syndrome, fibromyalgia syndrome and statin-induced myalgia. The most prominent symptoms is pain in the muscles, accompanied by pain in connective tissue (fibromyalgia), sleep disturbance, lack of mental clarity and feelings of well-being. In addition to the patients of Example 1 and 2, who presented with statin-induced myalgia, a mixed cohort of patients having given a physician's diagnosis of chronic fatigue syndrome or fibromyalgia syndrome were given a supply of D-ribose for self administration. Each patient served as his or her control, the results being reported as pre- and post-ribose administration. Compliance was estimated by the amount of the ribose supply remaining. Those patients having administered at least one-half of the 280 grams supply were included in the following summary. A total of 41 subjects were enrolled, of whom five were considered non-compliant and excluded from these analyses. Of the remaining 36 subjects, 78% were female, average age 48 years; 58% and 85% had been previously diagnosed with fibromyalgia and/or chronic fatigue syndrome. Twenty-nine subjects (81%) took a B-complex vitamin daily. The average length of time taking ribose was 25 days. The primary outcome measure was the initial versus final visit Visual Analog Scale (VAS) score: • 1. Visual Analog (well-being) Scale of 1-10 for five questions obtained before the first and after the last dose of ribose. • (A) How is your energy? (1=near dead and 10+excellent) • (B) How is your sleep? (1=no sleep and 10=8 hours of sleep a night without waking. • (C) How is your mental clarity? (1=brain dead and 10=good clarity) • (D) How bad is your pain? (1=very severe pain and 10=pain free) • (F) How is your overall sense of well-being? (1=near dead and 10=excellent) On taking the final dose, the patient was also asked in fill in: “much better, somewhat better, no change, somewhat worse and much worse.” The patients were also asked to comments on benefits or side effects. If they felt better, about how long did it take to feel better? Since the compliance was ascertained only by the amount of ribose remaining, the patients were asked to comment in more detail on their guesstimate of doses missed.

For assay [3], the system named is statin drug-induced rhabdomyolysis patient. Briefly: Patient with drug-induced rhabdomyolysis given ribose (case report). From the text:
They were started on a statin drug. Within three months they were diagnosed with rhabdomyolysis resulting in chronic renal failure and symptoms of extreme fatigue and muscle pain. The patient was placed on five grams of ribose, twice daily, after symptoms had persisted for about four months. […] They stayed on the regimen for about three months. Upon cessation of ribose administration, the fatigue and pain slowly returned, but not as severe as had been previously experienced.

The mark [4] stands for this setting: individualized response, ribose n = 12.
The mark [5] stands for this setting: person, five grams of ribose twice daily, within one week.

As to `O=C[C@H](O)[C@H](O)[C@H](O)CO` [Ribose, D-ribose], the “Severity of symptoms, Mean (sd)” value is on record as 3.7 (0.8) in assay [1] (Week 1, n = 15); 3.9 (0.8) in assay [1] (Week 2, n = 13); 3.7 (0.8) in assay [1] (Week 3, n = 12); 3.6 (1.0) in assay [1] (Week 4, n = 12); 3.4 (1.0) in assay [1] (Week 5, wash out period, n = 9); 3.7 (0.8) in assay [1] (Week 6, wash out period, n = 8). The “severity of symptoms at baseline” value in assay [1] (baseline, scale 1 to 5, placebo group 3.0) is 3.7. The “global assessment of symptom improvement: patients classified as Improved” value in assay [1] (five grams ribose twice a day, 11 of 13 ribose patients, placebo 3 of 14 (21%)) worked out at 85%. Also, the “patients reporting a change in symptoms at end of test period” value in assay [1] (four weeks, 10 of 12 remaining ribose patients, placebo 5 of 14 (36%), p=0.02) was found to be 83%. For the same molecule, the “patients with More than 50% improvement” value in assay [1] (setting [4]) stood at 36%. In addition, the “patients with No improvement or worse” value in assay [1] (setting [4]) was found to be 27%; in assay [1] (individualized response, ribose n = 12, listed as ribose), 27%. Besides, in assay [1] (setting [4]), the “patients with Some improvement” value is given as 73%. For the same molecule, the “average improvement greater than the placebo group” value in assay [1] (repeated measures analysis adjusted for baseline severity difference, p=0.35) is 0.10 units per week. The “patients experiencing at least some improvement during the study” value in assay [2] (23 of the 35 patients answering the general question) is given as 65.7%. The “VAS Energy, Post- Mean (std)” value in assay [2] (36 patients, post-ribose, scale 1-10, pre-ribose 3.8 (1.1), average 25 days on ribose) is listed as 5.5 (1.5). Further, the “VAS Well-being, Post- Mean (std)” value in assay [2] (36 patients, post-ribose, scale 1-10, pre-ribose 4.3 (1.3)) was 5.6 (1.5). For the same molecule, in assay [2] (36 patients, post-ribose, scale 1-10, pre-ribose 4.8 (1.6)), the “VAS Sleep, Post- Mean (std)” value was 6.0 (1.9). For the same molecule, the “VAS Mental Clarity, Post- Mean (std)” value in assay [2] (36 patients, post-ribose, scale 1-10, pre-ribose 4.9 (1.5)) is 5.7 (1.7). Besides, the “VAS Pain, Post- Mean (std)” value in assay [2] (36 patients, post-ribose, scale 1=very severe pain, 10=pain free, pre-ribose 4.9 (2.3)) is given as 5.6 (2.2). Moreover, in assay [2] (general question at final dose), the “patients reporting no change to somewhat worse than at the beginning of the study” value is given as “three”. Also, the “fatigue (patient report)” value in assay [3] (setting [5]) is “greatly reduced”. Further, the “muscle pain (patient report)” value in assay [3] (setting [5]) is “gone”. Moreover, the “symptoms after returning to the ribose regimen” value in assay [3] (ribose resumed a month after cessation, fatigue and pain had slowly returned) is on record as “again experienced relief of symptoms”.

Values taken from patent US20060135440A1, “Use of ribose to alleviate rhabdomyolysis and the side effects of statin drugs” (priority 2004, published 2006).
